According to US20090215812A1, “BIOMARKERS FOR EVALUATING LIKELIHOOD OF TUMOR SENSITIVITY TO AN MTOR INHIBITOR” (ARIAD GENE THERAPEUTICS, INC., priority 2005, published 2009):

How the values were obtained:
[1] = test system: HEC1A; test: in vitro proliferation assay (CellTiter 96 Aqueous One Solution); assay type: cell-based, human; details: average of 10, 33 and 100 nM, 3 days incubation, relative to untreated wells
Experimental: (§1) A series of in vitro proliferation assays were performed on 14 human tumor-derived cell lines exposed to AP23573 at concentrations ranging from 0.01 nM to […]. Cells were plated into 96-well plates (between 750 and 5000 cells per well as per the table below), in cell culture medium containing serial dilutions of AP23573, or in the absence of AP23573 as a control, and were then incubated for 3 days.
(§2) At the end of the incubation, the number of cells in each well (cell viability) was determined using a CellTiter 96® Aqueous One Solution Cell Proliferation metabolic activity assay kit (Promega). This assay is based on the use of a reagent that monitors the total reducing environment of a population of cells. The quantity of reduced products, which is determined spectrophotometrically, is directly proportional to the number of viable cells in the culture. The percentage of cells remaining after treatment with each concentration of AP23573 was then determined relative to the number of cells remaining in the untreated wells.
(§3) For each cell line the percentage cells remaining after treatment with AP23573 reached a plateau between 1 and 10 nM. Thus the inhibitory effect of AP23573 on cell proliferation was calculated by taking the average of the percentage of cells remaining at the 10, 33 and 100 nM concentration levels. A lower percentage of cells remaining reflects a larger inhibitory effect of AP23573. The experiment was performed two or three times for each cell line and the results averaged.

[2] = test system: MDA-435S; test: as above; assay type: cell-based, human; details: average of 10, 33 and 100 nM, 3 days incubation, relative to untreated wells
Experimental: as §1, §2, §3

[3] = test system: MDA-468; test: as above; assay type: cell-based, human; details: average of 10, 33 and 100 nM, 3 days incubation, relative to untreated wells
Experimental: as §1, §2, §3

[4] = test system: ES2; test: as above; assay type: cell-based, human; details: average of 10, 33 and 100 nM, 3 days incubation, relative to untreated wells
Experimental: as §1, §2, §3

[5] = test system: BT474; test: as above; assay type: cell-based, human; details: average of 10, 33 and 100 nM, 3 days incubation, relative to untreated wells
Experimental: as §1, §2, §3

[6] = test system: MCF7; test: as above; assay type: cell-based, human; details: average of 10, 33 and 100 nM, 3 days incubation, relative to untreated wells
Experimental: as §1, §2, §3

[7] = test system: HT1080; test: as above; assay type: cell-based, human
Experimental: as §1, §2, §3

[8] = test system: MDA-453; test: as above; assay type: cell-based, human; details: average of 10, 33 and 100 nM, 3 days incubation, relative to untreated wells
Experimental: as §1, §2, §3

[9] = test system: DU145; test: as above; assay type: cell-based, human; details: average of 10, 33 and 100 nM, 3 days incubation, relative to untreated wells
Experimental: as §1, §2, §3

[10] = test system: SKBR3; test: as above; assay type: cell-based, human; details: average of 10, 33 and 100 nM, 3 days incubation, relative to untreated wells
Experimental: as §1, §2, §3

[11] = test system: PC3; test: as above; assay type: cell-based, human; details: average of 10, 33 and 100 nM, 3 days incubation, relative to untreated wells
Experimental: as §1, §2, §3

[12] = test system: AN3CA; test: as above; assay type: cell-based, human; details: average of 10, 33 and 100 nM, 3 days incubation, relative to untreated wells
Experimental: as §1, §2, §3

[13] = test system: SKOV3; test: as above; assay type: cell-based, human; details: average of 10, 33 and 100 nM, 3 days incubation, relative to untreated wells
Experimental: as §1, §2, §3

[14] = test system: HCT116; test: as above; assay type: cell-based, human
Experimental: as §1, §2, §3

[15] = test system: sarcoma; test: ongoing clinical trial of AP23573 in sarcoma; assay type: in vivo, human; details: number of patients
Description: The experiment is repeated several times using either mixed sets of samples that included samples from tumors of various types or using sets of samples from a single tumor type (prostate cancer, leiomyosarcoma, osteosarcoma). Some of the samples are obtained from an ongoing clinical trial of AP23573 in sarcoma, results of which are presented below: […]

[16] = test system: 14 human tumor-derived cell lines; test: in vitro proliferation assays on panel of tumor cell lines; assay type: cell-based
Experimental: as §1, §2
For each cell line the percentage cells remaining after treatment with AP23573 reached a plateau between 1 and 10 nM. Thus the inhibitory effect of AP23573 on cell proliferation was calculated by taking the average of the percentage of cells remaining at the 10, 33 and 100 nM concentration levels. […]

[17] = average of 10, 33 and 100 nM, 3 days incubation, relative to untreated wells

**Q.** What does the source list for CO[C@H]1C[C@@H]2CC[C@@H](C)[C@@](O)(O2)C(=O)C(=O)N2CCCC[C@H]2C(=O)O[C@H]([C@H](C)C[C@@H]2CC[C@@H](OP(C)(C)=O)[C@H](OC)C2)CC(=O)[C@H](C)/C=C(\C)[C@@H](O)[C@@H](OC)C(=O)[C@H](C)C[C@H](C)/C=C/C=C/C=C/1C [AP23573]?
**A.** Percent Cells Remaining [1]: 70%; Percent Cells Remaining [2]: 68%; Percent Cells Remaining [3]: 77%; Percent Cells Remaining [4]: 63%; Percent Cells Remaining [5]: 80%; Percent Cells Remaining [6]: 55%; Percent Cells Remaining [7, 17]: 37%; sensitivity to AP23573 ([7]; high FKBP12 expression level): relatively sensitive; Percent Cells Remaining [8]: 58%; Percent Cells Remaining [9]: 81%; Percent Cells Remaining [10]: 55%; Percent Cells Remaining [11]: 51%; Percent Cells Remaining [12]: 45%; Percent Cells Remaining [13]: 61%; Percent Cells Remaining [14, 17]: 94%; sensitivity to AP23573 ([14]; low FKBP12 expression level): relatively resistant; CR/PR (complete response / partial response) ([15]; Bone Cohort (19)): 3; PD (progressive disease) ([15]; Bone Cohort (19)): 5; CR/PR (complete response / partial response) ([15]; Leiomyosarcoma (18)): 0; PD (progressive disease) ([15]; Leiomyosarcoma (18)): 6; CR/PR (complete response / partial response) ([15]; Liposarcoma (13)): 0; PD (progressive disease) ([15]; Liposarcoma (13)): 5; CR/PR (complete response / partial response) ([15]; Other Sarcoma (20)): 0; PD (progressive disease) ([15]; Other Sarcoma (20)): 7; sensitivity to AP23573 ([16]; HEC1A, BT474, MDA468, DU145, HCT116 (lower FKBP12 expression)): lower levels of sensitivity; sensitivity to AP23573 ([16]; HT1080, PC3, ES2, SKBR3 (relatively high FKBP12 expression)): relatively high levels of sensitivity
